From patent US4336250A, “Lactation improvement method” (Eli Lilly and Company, priority 1981, dated 1982)

Tests used:
Ruminal VFA = assay: In vivo ruminal VFA test in fistulated non-lactating lambs; design: species or system sheep; conditions: 15 g/ton in feed
Protocol: Two groups of fistulated lambs are allowed slightly more than their normal feed ration for 17 days. Test compound is administered to one group in the feed on a g/ton basis.
The rumen fluids of both groups of animals are sampled on days 3, 7, 10, 14 and 17 of the treatment period.
The fermentation of the ruminal samples is halted by addition of meta-phosphoric acid. Each sample is diluted, centrifuged at 2000×gravity for 10 minutes; the supernatants are analyzed for volatile fatty acids via the gas chromatographic method of E. S. Erwin, G. J. Marco and E. M. Emery in J. Dairy Sci., 44, 1768 […]. Molar percentages of ruminal volatile fatty acids are calculated, and the effect is measured as a comparison of the molar percentages of propionic acid and butyric acid in treated animals to those in contemporary controls. The results of the test are presented below in Tables II and III.

[1] = tested on: Ruminal VFA (rumen fluid); assay: In vitro rumen fluid fermentation test, ratio of VFA in treated to control flasks; design: species or system steer; conditions: 16 hours at 38° C
Source text: As previously noted, a preferred method for improving milk production in lactating ruminants comprises the oral administration of the virginiamycin type antibiotic A-2315. […] Rumen fluid is obtained from a steer with a surgically-installed fistula opening into the rumen. The steer is maintained on a high-grain ration, the composition of which follows: A sample of rumen fluid is strained through four layers of cheesecloth, and the filtrate is collected. The particulate matter retained by the cheesecloth is resuspended in enough physiological buffer to return it to the original volume of the rumen fluid, and this suspension is strained again. The buffer used has the following composition: The two filtrates are combined and allowed to stand until particulate matter separates to the top. The clear layer is separated, diluted with the same buffer (1:1) and then adjusted to pH 7.0. The diluted rumen fluid (10 ml.) is placed in a 25-ml flask with 40 mg. of the above-described feed, an additional 5 mg. of soybean protein, and the test compound. Four replicate flasks are used per treatment. Two sets of four control flasks each are also employed. A zero-time control and an incubated 16-hour control are used. All test flasks are incubated for 16 hours at 38° C. After incubation, 25 percent metaphosphoric acid (2 ml.) is added to each flask. The samples are allowed to settle, and the supernatant is analyzed by gas chromatography for propionate, acetate, and butyrate compounds. Test compound results are statistically compared with control results.

dairy cows = conditions: all administration rates evaluated; cited from earlier work
[2] = molar percentage of ruminal VFA, 17 days
[3] = 0.1 mcg per ml diluted rumen fluid
[4] = 0.3 mcg per ml diluted rumen fluid
[5] = 1.0 mcg per ml diluted rumen fluid

| Compound | Butyric acid, Increase Relative to Control (Ruminal VFA) [%] | Propionic acid, Increase Relative to Control (Ruminal VFA) [%] | Butyric acid, Change from Control (Ruminal VFA; control 11.1) | Propionic acid, Change from Control (Ruminal VFA; control 26.2) | % Butyric Acid Conc. (Ruminal VFA; [2]) [%] | % Propionic Acid Conc. (Ruminal VFA; [2]) [%] | Acetate, ratio of VFA concentration in treated flasks to control flasks [1, 3] | Butyrate, ratio of VFA concentration in treated flasks to control flasks [1, 3] | Propionate, ratio of VFA concentration in treated flasks to control flasks [1, 3] | Total VFA, ratio of concentration in treated flasks to control flasks [1, 3] | Acetate, ratio of VFA concentration in treated flasks to control flasks [1, 4] | Butyrate, ratio of VFA concentration in treated flasks to control flasks [1, 4] | Propionate, ratio of VFA concentration in treated flasks to control flasks [1, 4] | Total VFA, ratio of concentration in treated flasks to control flasks [1, 4] | Acetate, ratio of VFA concentration in treated flasks to control flasks [1, 5] | Butyrate, ratio of VFA concentration in treated flasks to control flasks [1, 5] | Propionate, ratio of VFA concentration in treated flasks to control flasks [1, 5] | Total VFA, ratio of concentration in treated flasks to control flasks [1, 5] | fat-corrected-milk production (dairy cows) |
| --- | --- | --- | --- | --- | --- | --- | --- | --- | --- | --- | --- | --- | --- | --- | --- | --- | --- | --- | --- |
| CC1=C\[C@@H](O)C[C@@H](O)Cc2nc(co2)C(=O)N[C@H](C)C(=O)O[C@H](C(C)C)[C@H](C)/C=C/C(=O)NC\C=C\1 [A-2315 Factor A] | 21.6 | 18.2 | 2.4 | 4.8 | 13.5 | 31.0 | 0.97 | 1.01 | 1.07 | 1.04 | 0.95 | 1.00 | 1.08 | 1.07 | 0.95 | 1.04 | 1.15 | 1.05 |  |
| CC[C@@]1([C@@H]2O[C@@H]([C@H]3O[C@@](O)(CO)[C@H](C)C[C@@H]3C)C[C@@H]2C)CC[C@H]([C@]2(C)CC[C@]3(C[C@H](O)[C@@H](C)[C@@H]([C@@H](C)[C@@H](OC)[C@H](C)C(=O)O)O3)O2)O1 [Monensin] |  |  |  |  |  |  |  |  |  |  |  |  |  |  |  |  |  |  | no different from that of non-treated control animals |
